Experimental data reported in patent publication US20260262643A1, “HERBICIDAL BENZOXAZINES” (FMC CORPORATION, priority 2022, published 2026).

Tests used:
barnyardgrass [1] = test: Test C preemergence; assay type: in vivo, Echinochloa crusgalli; conditions: 0 to 100 scale (0 no effect, 100 complete control)
Method in brief: (§1)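 Soil-applied (pre) and foliar (post, 1–2 leaf, 2–10 cm) sprays; surfactant-containing non-phytotoxic solvent vehicle; loam/sand substrate. Readout: visual % control at 10 d, greenhouse, versus untreated.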

blackgrass [2] = test: Test C preemergence; assay type: in vivo, Alopecurus myosuroides; conditions: 0 to 100 scale (0 no effect, 100 complete control)
Method in brief: as §1

corn [3] = test: Test C preemergence; assay type: in vivo, Zea mays; conditions: 0 to 100 scale (0 no effect, 100 complete control)
Method in brief: as §1

green foxtail [4] = test: Test C preemergence; assay type: in vivo, Setaria viridis; conditions: 0 to 100 scale (0 no effect, 100 complete control)
Method in brief: as §1

kochia [5] = test: Test C preemergence; assay type: in vivo, Bassia scoparia; conditions: 0 to 100 scale (0 no effect, 100 complete control)
Method in brief: as §1

oat, wild [6] = test: Test C preemergence; assay type: in vivo, Avena fatua; conditions: 0 to 100 scale (0 no effect, 100 complete control)
Method in brief: as §1

pigweed, palmer [7] = test: Test C preemergence; assay type: in vivo, Amaranthus palmeri; conditions: 0 to 100 scale (0 no effect, 100 complete control)
Method in brief: as §1

ragweed [8] = test: Test C preemergence; assay type: in vivo, Ambrosia artemisiifolia; conditions: 0 to 100 scale (0 no effect, 100 complete control)
Method in brief: as §1

ryegrass, Italian [9] = test: Test C preemergence; assay type: in vivo, Lolium multiflorum; conditions: 0 to 100 scale (0 no effect, 100 complete control)
Method in brief: as §1

soybean [10] = test: Test C preemergence; assay type: in vivo, Glycine max; conditions: 0 to 100 scale (0 no effect, 100 complete control)
Method in brief: as §1

wheat [11] = test: Test C preemergence; assay type: in vivo, Triticum aestivum; conditions: 0 to 100 scale (0 no effect, 100 complete control)
Method in brief: as §1

barnyardgrass [12] = test: Test C postemergence; assay type: in vivo, Echinochloa crusgalli; conditions: 10 days
Method in brief: as §1

blackgrass [13] = test: Test C postemergence; assay type: in vivo, Alopecurus myosuroides; conditions: 10 days
Method in brief: as §1

corn [14] = test: Test C postemergence; assay type: in vivo, Zea mays; conditions: 10 days
Method in brief: as §1

green foxtail [15] = test: Test C postemergence; assay type: in vivo, Setaria viridis; conditions: 10 days
Method in brief: as §1

kochia [16] = test: Test C postemergence; assay type: in vivo, Bassia scoparia; conditions: 10 days
Method in brief: as §1

oat, wild [17] = test: Test C postemergence; assay type: in vivo, Avena fatua; conditions: 10 days
Method in brief: as §1

pigweed, palmer [18] = test: Test C postemergence; assay type: in vivo, Amaranthus palmeri; conditions: 10 days
Method in brief: as §1

ragweed [19] = test: Test C postemergence; assay type: in vivo, Ambrosia artemisiifolia; conditions: 10 days
Method in brief: as §1

ryegrass, Italian [20] = test: Test C postemergence; assay type: in vivo, Lolium multiflorum; conditions: 10 days
Method in brief: as §1

soybean [21] = test: Test C postemergence; assay type: in vivo, Glycine max; conditions: 10 days
Method in brief: as §1

wheat [22] = test: Test C postemergence; assay type: in vivo, Triticum aestivum; conditions: 10 days
Method in brief: as §1

galium = test: Test C postemergence; assay type: in vivo, Galium aparine; conditions: 10 days
Method in brief: as §1

horseweed = test: Test C postemergence; assay type: in vivo, Erigeron canadensis; conditions: 10 days
Method in brief: as §1

barnyardgrass [23] = test: Test D flooded paddy test; assay type: in vivo, Echinochloa crus-galli; conditions: 250 g ai/ha, applied to paddy water, visual rating after 13 to 14 days, scale 0 to 100 (0 no effect, 100 complete control)
Method in brief: (§2)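 Compounds go straight into paddy water over 2-leaf plants in pots flooded to 3 cm. Greenhouse holding lasts 13 to 14 days. Injury is scored by eye against controls from 0 (none) to 100 (complete control).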

ducksalad = test: Test D flooded paddy test; assay type: in vivo, Heteranthera limosa; conditions: 250 g ai/ha, applied to paddy water, visual rating after 13 to 14 days, scale 0 to 100 (0 no effect, 100 complete control)
Method in brief: as §2

rice = test: Test D flooded paddy test; assay type: in vivo, Oryza sativa; conditions: 250 g ai/ha, applied to paddy water, visual rating after 13 to 14 days, scale 0 to 100 (0 no effect, 100 complete control)
Method in brief: as §2

sedge, umbrella = test: Test D flooded paddy test; assay type: in vivo, Cyperus difformis; conditions: 250 g ai/ha, applied to paddy water, visual rating after 13 to 14 days, scale 0 to 100 (0 no effect, 100 complete control)
Method in brief: as §2

[24] = Preemergence, 500 g ai/ha, visual rating after 10 days
[25] = Test C, preemergence, 125 g ai/ha
[26] = 125 g ai/ha, postemergence, 0 to 100 scale, 0 no effect, 100 complete control
[27] = Postemergence, 500 g ai/ha, visual 0 to 100 scale (0 no effect, 100 complete control)

C[C@H]1CN(C(=O)c2cc(-n3cncn3)cc3c2OCCO3)c2cccc(Cl)c2O1 [Compound 153]
100: Plant response rating, Barnyardgrass (barnyardgrass [1]; [24]) | Plant response rating, Foxtail, Green (green foxtail [4]; [24]) | Foxtail, Green plant response rating (green foxtail [4]; [25]) | Plant response rating, Pigweed, Palmer (pigweed, palmer [7]; [24]) | Pigweed, Palmer plant response rating (pigweed, palmer [7]; [25]) | Plant response rating, Ragweed (ragweed [8]; [24]) | Plant response rating, Soybean (soybean [10]; [24]) | Soybean plant response rating (soybean [10]; [25]) | Plant response rating, Pigweed, Palmer (pigweed, palmer [18]; [27]) | Plant response rating, Ragweed (ragweed [19]; [27]) | Plant response rating, Ryegrass, Italian (ryegrass, Italian [20]; [27]) | Plant response rating, Soybean (soybean [21]; [26]) | Plant response rating, Soybean (soybean [21]; [27]) | Plant response rating, Galium (galium; [27])
15: Plant response rating, Rice (Flood) (rice)
40: Oat, Wild plant response rating (oat, wild [6]; [25])
20: Blackgrass plant response rating (blackgrass [2]; [25]) | Wheat plant response rating (wheat [11]; [25])
0: Kochia plant response rating (kochia [5]; [25])
10: Corn plant response rating (corn [3]; [25])
98: Plant response rating, Sedge, Umbrella (Flood) (sedge, umbrella)
50: Plant response rating, Oat, Wild (oat, wild [17]; [26]) | Plant response rating, Horseweed (horseweed; [27])
35: Plant response rating, Barnyardgrass (Flood) (barnyardgrass [23])
60: Plant response rating, Blackgrass (blackgrass [2]; [24]) | Plant response rating, Kochia (kochia [5]; [24]) | Plant response rating, Kochia (kochia [16]; [26]) | Plant response rating, Horseweed (horseweed; [26])
90: Plant response rating, Ryegrass, Italian (ryegrass, Italian [9]; [24]) | Ryegrass, Italian plant response rating (ryegrass, Italian [9]; [25]) | Plant response rating, Wheat (wheat [11]; [24]) | Plant response rating, Barnyardgrass (barnyardgrass [12]; [26]) | Plant response rating, Barnyardgrass (barnyardgrass [12]; [27]) | Plant response rating, Blackgrass (blackgrass [13]; [26]) | Plant response rating, Blackgrass (blackgrass [13]; [27]) | Plant response rating, Corn (corn [14]; [27]) | Plant response rating, Foxtail, Green (green foxtail [15]; [26]) | Plant response rating, Foxtail, Green (green foxtail [15]; [27]) | Plant response rating, Kochia (kochia [16]; [27]) | Plant response rating, Ryegrass, Italian (ryegrass, Italian [20]; [26]) | Plant response rating, Wheat (wheat [22]; [26]) | Plant response rating, Wheat (wheat [22]; [27]) | Plant response rating, Galium (galium; [26])
30: Plant response rating, Corn (corn [3]; [24])
80: Barnyardgrass plant response rating (barnyardgrass [1]; 125 g ai/ha, preemergence) | Plant response rating, Oat, Wild (oat, wild [6]; [24]) | Ragweed plant response rating (ragweed [8]; [25]) | Plant response rating, Corn (corn [14]; [26]) | Plant response rating, Ragweed (ragweed [19]; [26])
70: Plant response rating, Oat, Wild (oat, wild [17]; [27]) | Plant response rating, Pigweed, Palmer (pigweed, palmer [18]; [26]) | Plant response rating, Ducksalad (Flood) (ducksalad)
